Like-named read-outs stand apart in the source and are kept apart here.
Experiments:
Assay in all cases: cell-based
CfEcR-DEF mutant A110P = CfEcR-DEF mutant A110P (Choristoneura fumiferana, UniProt O77255, A393P)
Summary of the method: (§1)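 Mouse NIH3T3 cells were treated with ligand in DMSO, then transfected with GAL4 luciferase reporter (0.16 μg/well) plus mutant CfEcR-DEF receptor constructs (0.04 μg each/well). Cells were kept at 37° C in 5% FBS and lysed 40 hours after ligand addition for dual-luciferase measurement. Fold induction = ligand RLU ÷ DMSO RLU.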

CfEcR-DEF mutant A110W = CfEcR-DEF mutant A110W (Choristoneura fumiferana, UniProt O77255, A393W)
CfEcR-DEF mutant A110W, sequence (P28702 299-449, stated change not applied): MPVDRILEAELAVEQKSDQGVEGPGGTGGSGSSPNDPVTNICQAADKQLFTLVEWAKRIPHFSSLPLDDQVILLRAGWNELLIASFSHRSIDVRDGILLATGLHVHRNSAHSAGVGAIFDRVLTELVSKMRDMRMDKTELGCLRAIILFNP
CfEcR-DEF mutant A110W, sequence (O77255 entry or part of it A393W): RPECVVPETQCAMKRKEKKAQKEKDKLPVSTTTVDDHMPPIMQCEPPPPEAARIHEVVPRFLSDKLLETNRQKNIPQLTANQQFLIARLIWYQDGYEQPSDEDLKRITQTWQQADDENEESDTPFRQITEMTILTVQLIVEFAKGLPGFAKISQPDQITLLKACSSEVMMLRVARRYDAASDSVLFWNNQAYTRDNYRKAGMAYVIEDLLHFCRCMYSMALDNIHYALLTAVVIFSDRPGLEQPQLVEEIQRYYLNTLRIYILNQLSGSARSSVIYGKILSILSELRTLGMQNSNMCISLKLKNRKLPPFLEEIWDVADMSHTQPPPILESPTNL
Summary of the method: as §1

CfEcR-DEF mutant F109L = CfEcR-DEF mutant F109L (Choristoneura fumiferana, UniProt O77255, F392L)
Summary of the method: as §1

CfEcR-DEF mutant L234I = CfEcR-DEF mutant L234I (Choristoneura fumiferana, UniProt O77255, L517I)
Summary of the method: as §1

CfEcR-DEF mutant M125C = CfEcR-DEF mutant M125C (Choristoneura fumiferana, UniProt O77255, M408C)
Summary of the method: as §1

CfEcR-DEF mutant M125L = CfEcR-DEF mutant M125L (Choristoneura fumiferana, UniProt O77255, M408L)
CfEcR-DEF mutant M125L, sequence (P28702 299-449): as the sequence (P28702 299-449, stated change not applied) above
CfEcR-DEF mutant M125L, sequence (O77255 entry or part of it M408L): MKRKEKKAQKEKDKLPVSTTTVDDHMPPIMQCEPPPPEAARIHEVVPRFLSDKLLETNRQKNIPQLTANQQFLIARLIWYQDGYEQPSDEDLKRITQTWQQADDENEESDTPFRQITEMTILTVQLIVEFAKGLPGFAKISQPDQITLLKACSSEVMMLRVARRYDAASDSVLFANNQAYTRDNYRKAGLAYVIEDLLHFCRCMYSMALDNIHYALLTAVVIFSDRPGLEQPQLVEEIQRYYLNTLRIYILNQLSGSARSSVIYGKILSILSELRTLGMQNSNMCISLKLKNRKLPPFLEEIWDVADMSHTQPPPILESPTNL
Summary of the method: as §1

CfEcR-DEF mutant M54T = CfEcR-DEF mutant M54T (Choristoneura fumiferana, UniProt O77255, M337T)
Summary of the method: as §1

CfEcR-DEF mutant M54W = CfEcR-DEF mutant M54W (Choristoneura fumiferana, UniProt O77255, M337W)
Summary of the method: as §1

CfEcR-DEF mutant M92E = CfEcR-DEF mutant M92E (Choristoneura fumiferana, UniProt O77255, M375E)
Summary of the method: as §1

CfEcR-DEF mutant M92L = CfEcR-DEF mutant M92L (Choristoneura fumiferana, UniProt O77255, M375L)
Summary of the method: as §1

CfEcR-DEF mutant R95H = CfEcR-DEF mutant R95H (Choristoneura fumiferana, UniProt O77255, R378H)
CfEcR-DEF mutant R95H, sequence (P28702 299-449): as the sequence (P28702 299-449, stated change not applied) above
CfEcR-DEF mutant R95H, sequence (O77255 entry or part of it R378H): as the sequence (O77255 entry or part of it M408L) above, with R160H, L190M counted along it
Summary of the method: as §1

CfEcR-DEF mutant T52E = CfEcR-DEF mutant T52E (Choristoneura fumiferana, UniProt O77255, T335E)
Summary of the method: as §1

CfEcR-DEF mutant T52L = CfEcR-DEF mutant T52L (Choristoneura fumiferana, UniProt O77255, T335L)
Summary of the method: as §1

[1] = molecular target: CfEcR-DEF mutant V128F/A110P (Choristoneura fumiferana, UniProt O77255, A393P/V411F)
CfEcR-DEF mutant V128F/A110P, sequence (P28702 299-449, stated change not applied): as the sequence (P28702 299-449, stated change not applied) above
CfEcR-DEF mutant V128F/A110P, sequence (O77255 entry or part of it A393P/V411F): as the sequence (O77255 entry or part of it M408L) above, with A175P, L190M, V193F counted along it
Summary of the method: as §1

CfEcR-DEF mutant V96S = CfEcR-DEF mutant V96S (Choristoneura fumiferana, UniProt O77255, V379S)
CfEcR-DEF mutant V96S, sequence (O77255 entry or part of it V379S): as the sequence (O77255 entry or part of it M408L) above, with V161S, L190M counted along it
CfEcR-DEF mutant V96S, sequence (P28702 299-449, further chain): as the sequence (P28702 299-449, stated change not applied) above
Summary of the method: as §1

CfEcR-DEF mutant W238P = CfEcR-DEF mutant W238P (Choristoneura fumiferana, UniProt O77255, W521P)
Summary of the method: as §1

CfEcR-DEF mutant Y120W = CfEcR-DEF mutant Y120W (Choristoneura fumiferana, UniProt O77255, Y403W)
Summary of the method: as §1

CfEcR-DEF mutant A110N = CfEcR-DEF mutant A110N (Choristoneura fumiferana, UniProt O77255, A393N)
CfEcR-DEF mutant A110N, sequence (O77255 entry or part of it A393N): as the sequence (O77255 entry or part of it A393W) above, with W187N counted along it
CfEcR-DEF mutant A110N, sequence (P28702 299-449, stated change not applied, further chain): as the sequence (P28702 299-449, stated change not applied) above
Experimental: (§2) This construct was prepared in the same way as in switch 1.1 above except wild-type CfEcR-DEF was replaced with mutant CfEcR-DEF comprising a ligand binding domain comprising a substitution mutation selected from Table 1 below.
(§3) DNAs were transfected into mouse NIH3T3 cells (ATCC) as follows. Standard methods for culture and maintenance of the cells were followed. Cells were harvested and plated 96-well plates at 2,500 cells per well, in 50 μL of growth medium containing 10% fetal bovine serum (FBS). Twenty-four hours later, the cells were treated with 35 μL of serum-free growth medium containing either dimethylsulfoxide (DMSO; control) or a DMSO solution of ligand. The cells were then transfected using Superfect (Qiagen Inc.) transfection reagent. For each well, 0.625 μL of Superfect was mixed with 14.2 μL of serum-free growth medium. 0.16 μg of reporter construct and 0.04 μg of each receptor construct were added to the transfection reagent mix. The contents of the transfection mix were mixed in a vortex mixer and let stand at room temperature for 30 minutes. At the end of incubation, 15 μL of transfection mix was added to the cells. The cells were maintained at 37° C. and 5% CO2 for 48 hours in 5% FBS.
(§4) Reporter Assays: Cells were harvested 40 hours after adding ligands. 125 μL of passive lysis buffer (part of Dual-Luciferase reporter assay system from Promega Corporation) were added to each well of the […] plate. The plates were placed on a rotary shaker for 15 minutes. Twenty μL of lysate were assayed. Luciferase activity was measured using Dual-Luciferase reporter assay system from Promega Corporation following the manufacturer's instructions. Fold induction (FI) activities were calculated by dividing relative light units (“RLU”) in ligand treated cells with RLU in DMSO treated cells (untreated control).

CfEcR-DEF mutant W238E = CfEcR-DEF mutant W238E (Choristoneura fumiferana, UniProt O77255, W521E)
CfEcR-DEF mutant W238E, sequence (P28702 299-449): as the sequence (P28702 299-449, stated change not applied) above
CfEcR-DEF mutant W238E, sequence (O77255 entry or part of it W521E): as the sequence (O77255 entry or part of it M408L) above, with L190M, W303E counted along it
Experimental: as §2, §3, §4

CfEcR-DEF mutant L132M = CfEcR-DEF mutant L132M (Choristoneura fumiferana, UniProt O77255, L415M); type: cell-based; details: NIH3T3, 40 h, read-out: Rel Max FI, mutant L132M
CfEcR-DEF mutant L132M, sequence (O77255 entry or part of it L415M): as the sequence (O77255 entry or part of it A393W) above, with W187A, L209M counted along it
CfEcR-DEF mutant L132M, sequence (P28702 298-449, further chain): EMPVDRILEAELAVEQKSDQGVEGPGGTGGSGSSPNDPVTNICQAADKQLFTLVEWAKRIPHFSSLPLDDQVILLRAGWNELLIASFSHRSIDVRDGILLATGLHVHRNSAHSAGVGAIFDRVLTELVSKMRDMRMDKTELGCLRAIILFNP
Experimental: as §2, §3, §4

[2] = NIH3T3, 40 h, read-out: Rel Max FI

CfEcR-DEF mutant A110P, sequence (O77255 entry or part of it A393P): as the sequence (O77255 entry or part of it A393W) above, with W187P counted along it
CfEcR-DEF mutant A110P, sequence (P28702 299-449, stated change not applied, further chain): as the sequence (P28702 299-449, stated change not applied) above

SMILES: CCc1cccc(C(=O)NN(C(=O)c2cc(C)cc(C)c2)C(C)(C)C)c1C [RG-101691, 3,5-Dimethyl-benzoic acid N-tert-butyl-N′-(3-ethyl-2-methyl-benzoyl)-hydrazide]
- EC50 (CfEcR-DEF mutant A110P): 670 nM
- Emax (CfEcR-DEF mutant A110P; [2]): 89%
- EC50 (CfEcR-DEF mutant A110W): 1060 nM
- Emax (CfEcR-DEF mutant A110W; [2]): 80%
- EC50 (CfEcR-DEF mutant F109L): 2340 nM
- Emax (CfEcR-DEF mutant F109L; [2]): 68%
- EC50 (CfEcR-DEF mutant L234I): 940 nM
- Emax (CfEcR-DEF mutant L234I; [2]): 73%
- EC50 (CfEcR-DEF mutant M125C; EC50, mutant M125C): ≥ 33000 nM
- Emax (CfEcR-DEF mutant M125C; [2]): 62%
- EC50 (CfEcR-DEF mutant M125L): > 33000 nM
- Emax (CfEcR-DEF mutant M125L; [2]): 0%
- EC50 (CfEcR-DEF mutant M54T): 30 nM
- Emax (CfEcR-DEF mutant M54T; [2]): 71%
- EC50 (CfEcR-DEF mutant M54W): 1630 nM
- Emax (CfEcR-DEF mutant M54W; [2]): 75%
- EC50 (CfEcR-DEF mutant M92E): ~20000 nM
- Emax (CfEcR-DEF mutant M92E; [2]): 8%
- EC50 (CfEcR-DEF mutant M92L): 9900 nM
- Emax (CfEcR-DEF mutant M92L; [2]): 41%
- EC50 (CfEcR-DEF mutant R95H): 3900 nM
- Emax (CfEcR-DEF mutant R95H; [2]): 96%
- EC50 (CfEcR-DEF mutant T52E): ~7000 nM
- Emax (CfEcR-DEF mutant T52E; [2]): 57%
- EC50 (CfEcR-DEF mutant T52L): 210 nM
- Emax (CfEcR-DEF mutant T52L; [2]): 74%
- EC50 [1]: ~5000 nM
- Emax [1, 2]: 8%
- Rel Max FI ([1]; mutant V128F/A110P, 2400 min): 0.08
- EC50 (CfEcR-DEF mutant V96S): 870 nM
- Emax (CfEcR-DEF mutant V96S; [2]): 90%
- EC50 (CfEcR-DEF mutant W238P): 650 nM
- Emax (CfEcR-DEF mutant W238P; [2]): 91%
- EC50 (CfEcR-DEF mutant Y120W): 9760 nM
- Emax (CfEcR-DEF mutant Y120W; [2]): 89%
- EC50 (CfEcR-DEF mutant A110N): 880 nM
- Emax (CfEcR-DEF mutant A110N; [2]): 99%
- EC50 (CfEcR-DEF mutant W238E): ~8000 nM
- Emax (CfEcR-DEF mutant W238E; [2]): 71%
- Emax (CfEcR-DEF mutant L132M): 8%
- Emax (CfEcR-DEF mutant L132M; relative to max fold induction of GS-E ligand): 77%

From patent US9163256B2, “Mutant receptors and their use in a nuclear receptor-based inducible gene expression system” (priority 2004, dated 2015)
